Laboratory results taken from ChEMBL document CHEMBL1129823, “Cytotoxicity and actin depolymerizing activity of aplyronine A, a potent antitumor macrolide of marine origin, and the natural and artificial analogs” (Bioorg Med Chem Lett, 1997).
In brackets after ≈: the same amount, converted by molar mass. Activity calls are given as the source filed them. The calls are words filed in the database; no cut-off is given here.

How the values were obtained:
Oryctolagus cuniculus [1] = species on record: Oryctolagus cuniculus; experiment: Relative potency was calculated from the Actin depolymerizing activity (aplyronine A = 100); format: functional
[2] = F-Actin (40 uM) depolymerizing activity which was monitored by measuring flow birefringence.; format: functional, Oryctolagus cuniculus
HeLa [3] = experiment: Evaluated for the cytotoxicity against HeLa S3 cells; format: functional, cell-based; conditions: Homo sapiens
HeLa [4] = experiment: Relative potency was calculated from the cytotoxicity against HeLa S3 cells (aplyronine A = 100); format: functional, Homo sapiens
[5] = Compound was evaluated for the F-Actin (40 uM) depolymerizing activity which was monitored by measuring flow birefringence (Actin was extracted in cold water from the acetone-dried powder of rabbit skeletal muscle); format: functional, tissue-based, Oryctolagus cuniculus, Muscle tissue
Oryctolagus cuniculus [6] = species on record: Oryctolagus cuniculus; experiment: Relative potency was calculated from the Actin depolymerizing activity (aplyronine A = 100); Inactive; format: functional
[7] = Compound was evaluated for the F-Actin (40 uM) depolymerizing activity which was monitored by measuring flow birefringence (Actin was extracted in cold water from the acetone-dried powder of rabbit skeletal muscle); Inactive; format: functional, tissue-based, Oryctolagus cuniculus, Muscle tissue
[8] = Compound was evaluated for the F-Actin (40 uM) depolymerizing activity* which was monitored by measuring flow birefringence (Actin was extracted in cold water from the acetone-dried powder of rabbit skeletal muscle); format: functional, tissue-based, Oryctolagus cuniculus, Muscle tissue

IC50 [2] [µM]	IC50 [5] [µM]	IC50 [7]	IC50 [8] [µM]	Compound	Relative potency (Oryctolagus cuniculus [1])	IC50 (HeLa [3]) [µg/mL]	Relative potency (HeLa [4])	Relative potency (Oryctolagus cuniculus [6])
57	–	–	–	COCC(C(=O)O[C@@H]1C/C=C/C=C/C(=O)O[C@H]([C@@H](C)[C@@H](OC(C)=O)[C@@H](C)CC[C@@H](OC(=O)C(C)N(C)C)[C@H](C)[C@H](OC(C)=O)[C@H](C)/C=C/N(C)C=O)C/C=C/[C@H](OC)C[C@H](C)C/C=C(\C)[C@@H](OC)CC[C@@H](C)[C@@H](OC(C)=O)[C@@H]1C)N(C)C (stereo not given in full)	54	0.216 (≈ 0.186 µM)	0.22	–
49	–	–	–	CO[C@@H]1/C=C/C[C@@H](C)C[C@@H](OC)/C=C/C[C@@H]([C@@H](C)[C@@H](O)[C@@H](C)CC[C@@H](OC(=O)CN(C)C)[C@H](C)[C@H](OC(C)=O)[C@H](C)CCO)OC(=O)/C=C/C=C/C[C@@H](OC(=O)CN(C)C)[C@@H](C)[C@H](O)[C@H](C)CC1	63	> 2	<0.02	–
190	–	–	–	COCC(C(=O)O[C@@H]1C/C=C/C=C/C(=O)O[C@H]([C@@H](C)[C@@H](O)[C@@H](C)CC[C@@H](O)[C@H](C)[C@H](O)[C@H](C)CCO)C/C=C/[C@H](OC)C[C@H](C)C/C=C/[C@@H](OC)CC[C@@H](C)[C@@H](O)[C@@H]1C)N(C)C (stereo not given in full)	16	0.083 (≈ 0.0941 µM)	0.58	–
35	–	–	–	COCC(C(=O)O[C@@H]1C/C=C/C=C/C(=O)O[C@H]([C@@H](C)[C@@H](O)[C@@H](C)CC[C@@H](O)[C@H](C)[C@H](OC(C)=O)[C@H](C)/C=C/N(C)C=O)C/C=C/[C@H](OC)C[C@H](C)C/C=C(\C)[C@@H](OC)CC[C@@H](C)[C@@H](O)[C@@H]1C)N(C)C (stereo not given in full)	86	0.00103 (≈ 0.00105 µM)	47	–
36	–	–	–	COCC(C(=O)O[C@@H]1C/C=C/C=C/C(=O)O[C@H]([C@@H](C)[C@@H](O)[C@@H](C)CC[C@@H](O)[C@H](C)[C@H](OC(C)=O)[C@H](C)CCO)C/C=C/[C@H](OC)C[C@H](C)C/C=C/[C@@H](OC)CC[C@@H](C)[C@@H](O)[C@@H]1C)N(C)C (stereo not given in full)	86	0.037 (≈ 0.04 µM)	1.3	–
35	–	–	–	CO[C@H]1CC[C@@H](C)[C@@H](O)[C@H](C)[C@H](O)C/C=C/C=C/C(=O)O[C@H]([C@@H](C)[C@@H](O)[C@@H](C)CC[C@@H](O)[C@H](C)[C@H](OC(C)=O)[C@H](C)/C=C/N(C)C=O)C/C=C/[C@H](OC)C[C@H](C)C/C=C/1C	86	0.113 (≈ 0.133 µM)	0.42	–
32	–	–	–	CO[C@H]1CC[C@@H](C)[C@@H](O)[C@H](C)[C@H](O)C/C=C/C=C/C(=O)O[C@H]([C@@H](C)[C@@H](O)[C@@H](C)CC[C@@H](OC(=O)C(C)N(C)C)[C@H](C)[C@H](OC(C)=O)[C@H](C)/C=C/N(C)C=O)C/C=C/[C@H](OC)C[C@H](C)C/C=C/1C (stereo not given in full) [APLYRONINE C]	97	0.0212 (≈ 0.0224 µM)	2.3	–
78	–	–	–	COCC(C(=O)O[C@@H]1C/C=C/C=C/C(=O)O[C@H]([C@@H](C)[C@@H](O)[C@@H](C)CC[C@@H](OC(=O)C(C)N(C)C)[C@H](C)[C@H](OC(C)=O)[C@H](C)CCO)C/C=C/[C@H](OC)C[C@H](C)C/C=C(\C)[C@@H](OC)CC[C@@H](C)[C@@H](O)[C@@H]1C)N(C)C (stereo not given in full)	40	0.00172 (≈ 0.00166 µM)	28	–
33	–	–	–	COCC(C(=O)O[C@H]1[C@H](C)[C@H](O)C/C=C/C=C/C(=O)O[C@H]([C@@H](C)[C@@H](O)[C@@H](C)CC[C@@H](OC(=O)C(C)N(C)C)[C@H](C)[C@H](OC(C)=O)[C@H](C)/C=C/N(C)C=O)C/C=C/[C@H](OC)C[C@H](C)C/C=C(\C)[C@@H](OC)CC[C@H]1C)N(C)C (stereo not given in full) [APLYRONINE B]	94	0.00311 (≈ 0.00289 µM)	15	–

Second part, the compound before the results:

Compound	IC50 [2] [µM]	IC50 [5] [µM]	IC50 [7]	IC50 [8] [µM]	Relative potency (Oryctolagus cuniculus [1])	IC50 (HeLa [3]) [µg/mL]	Relative potency (HeLa [4])	Relative potency (Oryctolagus cuniculus [6])
COCC(C(=O)O[C@@H]1C/C=C/C=C/C(=O)O[C@H]([C@@H](C)[C@@H](O)[C@@H](C)CO)C/C=C/[C@H](OC)C[C@H](C)C/C=C/[C@@H](OC)CC[C@@H](C)[C@@H](O)[C@@H]1C)N(C)C (stereo not given in full)	–	4500	–	–	0.69	> 2	<0.02	–
COCC(C(=O)O[C@@H]1C/C=C/C=C/C(=O)OCC/C=C/[C@H](OC)C[C@H](C)C/C=C/[C@@H](OC)CC[C@@H](C)[C@@H](O)[C@@H]1C)N(C)C (stereo not given in full)	–	–	Not Active	–	–	–	–	inactive
COCC(C(=O)O[C@@H]1C/C=C/C=C/C(=O)O[C@H]([C@@H](C)[C@@H](O)[C@@H](C)COC(=O)C(C)N(C)C)C/C=C/[C@H](OC)C[C@H](C)C/C=C/[C@@H](OC)CC[C@@H](C)[C@@H](O)[C@@H]1C)N(C)C (stereo not given in full)	1800	–	–	–	1.7	–	–	–
COCC(C(=O)O[C@@H]1C/C=C/C=C/C(=O)O[C@H]([C@@H](C)[C@@H](O)[C@@H](C)CC[C@@H](OC(=O)C(C)N(C)C)[C@H](C)[C@H](OC(C)=O)[C@H](C)CCO)C/C=C/[C@H](OC)C[C@H](C)C/C=C/[C@@H](OC)CC[C@@H](C)[C@@H](O)[C@@H]1C)N(C)C (stereo not given in full)	38	–	–	–	82	0.0026 (≈ 0.00254 µM)	18	–
COCC(C(=O)O[C@@H]1C/C=C/C=C/C(=O)OCC/C=C/[C@H](OC)C[C@H](C)C/C=C(\C)[C@@H](OC)CC[C@@H](C)[C@@H](O)[C@@H]1C)N(C)C (stereo not given in full)	–	–	–	–	–	2.1 (≈ 3.38 µM)	0.023	–
C[C@H]([C@H](O)[C@H](C)CCO)[C@H](O)CC[C@H](C)[C@H](O)[C@H](C)[C@@H](O)CCO	–	–	–	7600	0.41	–	–	–
COCC(C(=O)O[C@@H]1CCCCCC(=O)O[C@H]([C@@H](C)[C@@H](O)[C@@H](C)CC[C@@H](OC(=O)C(C)N(C)C)[C@H](C)[C@H](OC(C)=O)[C@H](C)CCO)C/C=C/[C@H](OC)C[C@H](C)C/C=C(\C)[C@@H](OC)CC[C@@H](C)[C@@H](O)[C@@H]1C)N(C)C (stereo not given in full)	70	–	–	–	44	0.057 (≈ 0.0547 µM)	0.84	–
COCC(C(=O)O[C@@H]1C/C=C/C=C/C(=O)O[C@H]([C@@H](C)[C@@H](O)[C@@H](C)CC[C@@H](OC(=O)C(C)N(C)C)[C@H](C)[C@H](OC(C)=O)[C@H](C)/C=C/N(C)C=O)C/C=C/[C@H](OC)C[C@H](C)C/C=C(\C)[C@@H](OC)CC[C@@H](C)[C@@H](O)[C@@H]1C)N(C)C (stereo not given in full) [APLYRONINE A]	31	–	–	–	100	0.00048 (≈ 0.000446 µM)	100	–
